PMC8111326 (Journal of Molecular Endocrinology, 2021)
Where a name gives a salt, the structure may show the parent alone. Read-outs that look alike come from different tables or passages of the source.

Experiments:
transmitter release = conditions: co-administered with calcium chelator BAPTA/AM; ref Di Virgilio et al. 1988; cited from earlier work
[1] = tested on: α-MSH-induced [Ca2+]i in HEK293 cells; conditions: cited from earlier work

C[C@H](CCC(=O)O)C[C@H](C)C[C@H](C)C(=O)/C=C(\O)[C@H](C)C[C@H](C)C/C=C/[C@@H](C)[C@@H](O)[C@@H](C)[C@@H](O)C[C@@H]1CC[C@@](C)([C@H]2CC[C@@](C)([C@@H](C)O)O2)O1 [ionomycin, ionomycin calcium salt]
ionomycin effect on calcium signal ([Ca2+]i in HEK293 cells; presence or absence of probenecid, ionomycin 10 µL of 0.33 mM stock in DMSO): rapid increase in calcium signal

CCCN(CCC)S(=O)(=O)c1ccc(C(=O)O)cc1 [probenecid]
interference with EGTA chelation of calcium ([Ca2+]i in HEK293 cells; probenecid 1 mM in CLB-HG, Ca2+-free buffer-HG, -Ward or -Ion Optix, Supplementary Fig. 7): interfered with EGTA chelation of calcium
interference with EGTA chelation of calcium ([Ca2+]i in HEK293 cells; probenecid 0.5–2.5 mM, pluronic acid, Supplementary Fig. 5): interferes with EGTA chelation of calcium
retention of Fura-2 in cells (HEK293 cells; probenecid 1 mM vs 2.5 mM): 1 mM probenecid worked as efficiently as 2.5 mM for Fura-2 retention
retention of Fura-2/AM and Fura-2 in cells (HEK293 cells; probenecid 2.5 mM, three independent experiments): retains Fura-2/AM and Fura-2 in HEK293 cell monolayers
effect on transmitter release (transmitter release): profound and prolonged attenuation of transmitter release

cholera toxin
effect on α-MSH-induced [Ca2+]i [1]: significantly attenuated

ethylene glycol-bis (β-aminoethyl ether)-N,N,N′,N′-tetraacetic acid [EGTA]
EGTA chelation of calcium in specific Rmin wells ([Ca2+]i in HEK293 cells; EGTA 5.5 mM final, cells co-loaded with Fura-2/AM and 10 µM EGTA in DMEM, probenecid 1 mM in esterase buffer, three independent experiments): chelated calcium in the presence of either Ca^2+-free-HG buffer or Ca^2+-free-Ward buffer
effect of EGTA injection on basal calcium signal, optimised assay conditions (with probenecid) ([Ca2+]i in HEK293 cells; cell monolayers, EGTA 10 µL of 165 mM stock): did not reduce basal calcium signal
EGTA effect on fluorescence ratio (340/380), specific Rmin wells ([Ca2+]i in HEK293 cells; cells depleted of calcium by EGTA prior to imaging, calcium-free buffer): rapid small decrease in fluorescence 340/380 ratio
EGTA effect on fluorescence ratio (340/380), with probenecid ([Ca2+]i in HEK293 cells; in the presence of probenecid): either has no effect on fluorescence ratio or increases the fluorescence ratio
